Data as given in article PMC4860631, “Pharmacokinetics and tolerability of NSC23925b, a novel P-glycoprotein inhibitor: preclinical study in mice and rats” (Scientific Reports, 2016).
Where two headings read alike, the source gives them in different places.

Tests used:
BALB/c mice = assay: Determination of maximum tolerated dose (MTD) in mice; type: in vivo; details: mice, 5 exposed
Method: (§1) The MTD determination assay was composed of sighting study and main study. For the sighting study of the determination maximum tolerable dose (MTD) of NSC23925b, one of each animal (one female rat, one male rat, one female mouse, and one male mouse) was used at each I.V. and I.P. injection dose level. The starting dose was selected from the fixed dose levels (5, 50, 500, 2000 mg/kg) as a dose expected to produce evident toxicity. The first animal was dosed and observed. Time of appearance, degree, and lasting/recovery time of signs were recorded in details. Afterwards, animals were observed twice on the dosing day and then changed to daily observation. The observation lasted at least 14 days. If the first animal died or appeared impaired, the second animal received a middle dose of the two doses and vice versa. The sighting study was completed when a decision on the starting dose for the main study was made.
(§2) During the main study, a total of five animals of one sex were used for each dose level investigated. The five animals were made up of one animal from the sighting study dosed at the selected dose level together with an additional four animals. Each group received one of the fixed doses by I.V. and I.P. based on the sighting study. If the first animal died or appeared impaired, the second animal received a middle dose of the two doses and vice versa.
(§3) Animals were fasted overnight prior to dosing. Following the period of fasting, the animals were weighed and the dose was calculated according to the body weight. After the animals were administrated a dose volume of 10 mL/kg, food was withheld for another 3–4 hours. Individual weights of animals were determined shortly before the test substance was administered and twice weekly thereafter. Weight changes were calculated and recorded. Animals injected with saline were the control group for the weight alteration.

[1] = as above; type: in vivo; details: mouse, in vivo
Method: as §1, §2, §3

in vivo = details: mouse, in vivo; for AUC(0-inf): AUC0-inf; for AUC(0-t): AUC0-t; for k el: Kel; for half-life: t1/2
Method: After dosing, blood samples were collected at different time points for each group. […] Three animals were used for each time point. Approximately 800 μL of blood was collected via orbital vein (a source of collecting sufficient volume of venous blood) from each anesthetized mouse by isoflurane, and 200 μL of blood was collected from the cannula implanted in the jugular vein. The catheter was implanted when the blood sample was collected at the first time point. Next, the blood was transferred to a prepared tube containing sodium heparin anticoagulant and mixed briefly by gentle inversion three to four times. The target and actual time of blood sampling were recorded relative to the time of dosing. Samples were placed on wet ice immediately after collection. Within 1 hour after collection, plasma was separated by centrifugation at 4,000 rpm for 10 minutes at 4 °C. The plasma was protected from light and stored at −80 °C until analyzed by liquid chromatography-mass spectrometry/mass spectrometry (LC-MS/MS) for quantification.
Using the data from the standards, calibration curves were generated for each analytical batch. Aliquots of 10.0 μL of samples, calibraton curve samples, and QC samples were supplemented with 100 μL of precipitant (a mixture of acetone and acetonitrile (30:70)). After vortexing for 3 min and centrifuging at 12,000 rpm for 3 min, 75.00 μL of the supernatant was transferred into a 96-well microplate with an equal volume of water. The 10 μL mixture solution was injected for LC-MS/MS analysis.
Data collection was performed using Analyst version 1.4 from Applied Biosystems. […] The data were also analyzed using Prism 5.0 software. Statistical significance was determined using independent two-tailed Student t-tests and one-way ANOVA for independent data. Differences of P < 0.05 were regarded as significant for all statistical analyses.

CYP1A2 = molecular target: T1, CYP1A2 (Homo sapiens, UniProt P05177); assay: HLM-LC-MS CYP450 inhibition assay, CYP1A2; type: in vitro ADME
T1 sequence (P05177 1-516): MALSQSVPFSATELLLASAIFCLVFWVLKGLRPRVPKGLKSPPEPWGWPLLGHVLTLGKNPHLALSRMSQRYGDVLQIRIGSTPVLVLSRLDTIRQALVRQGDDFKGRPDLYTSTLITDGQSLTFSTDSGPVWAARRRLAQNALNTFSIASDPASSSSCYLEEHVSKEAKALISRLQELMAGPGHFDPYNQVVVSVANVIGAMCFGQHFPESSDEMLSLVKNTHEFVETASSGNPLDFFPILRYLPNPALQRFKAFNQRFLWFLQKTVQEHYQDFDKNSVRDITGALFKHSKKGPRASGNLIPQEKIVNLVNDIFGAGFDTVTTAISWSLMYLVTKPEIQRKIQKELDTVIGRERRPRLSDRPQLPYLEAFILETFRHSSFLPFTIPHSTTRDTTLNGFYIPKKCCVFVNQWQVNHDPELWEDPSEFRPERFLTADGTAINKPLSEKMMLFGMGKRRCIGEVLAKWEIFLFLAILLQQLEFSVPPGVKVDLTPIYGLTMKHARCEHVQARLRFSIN

CYP2B6 = molecular target: T2, CYP2B6 (Homo sapiens, UniProt P20813); assay: HLM-LC-MS CYP450 inhibition assay, CYP2B6; type: in vitro ADME
T2 construct: from tissue; host or cells: human liver microsomes
T2 sequence (P20813 1-491): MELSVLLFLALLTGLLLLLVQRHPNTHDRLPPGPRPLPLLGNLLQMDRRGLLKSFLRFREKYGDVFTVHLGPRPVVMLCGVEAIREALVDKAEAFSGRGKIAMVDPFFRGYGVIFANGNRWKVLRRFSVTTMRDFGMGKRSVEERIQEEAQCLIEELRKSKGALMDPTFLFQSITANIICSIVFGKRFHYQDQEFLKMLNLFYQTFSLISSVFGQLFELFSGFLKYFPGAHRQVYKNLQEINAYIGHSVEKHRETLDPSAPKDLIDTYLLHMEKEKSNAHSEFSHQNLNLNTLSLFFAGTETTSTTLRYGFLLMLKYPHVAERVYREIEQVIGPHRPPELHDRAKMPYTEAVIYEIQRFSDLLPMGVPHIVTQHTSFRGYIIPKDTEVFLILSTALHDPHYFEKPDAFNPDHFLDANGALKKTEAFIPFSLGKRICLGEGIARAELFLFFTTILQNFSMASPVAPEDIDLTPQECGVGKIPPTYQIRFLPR
Method: Compounds were tested in triplicate.

Question: For `COc1ccc(-c2cc(C(O)C3CCCCN3)c3ccccc3n2)cc1` (stereo not shown) [NSC23925b, (2-(4-methoxyphenyl)-4-quinolinyl)(2-piperidinyl)methanol], which “Number of Death” value (BALB/c mice; I.P., 68.80 mg/kg, male) is on record?
Answer: The value was 0.

Question: What about the “Number of Death” value (BALB/c mice; I.P., 93.75 mg/kg, female) of the same compound?
Answer: The value was 2.

Question: And the “Number of Death” value (BALB/c mice; I.V., 24.70 mg/kg, female)?
Answer: Its value is 0.

Question: And the “Number of Death” value (BALB/c mice; I.V., 24.70 mg/kg, male)?
Answer: Its value is 0.

Question: And the MTD ([1]; BALB/c, ip, male mice, I.P., all five tolerated, read-out: tolerated dosage (MTD study))?
Answer: Its MTD is 68.8 mg/kg.

Question: And the MTD ([1]; both sexes, BALB/c (mice), Sprague-Dawley (rats), intraperitoneal, intravenous, rodents (mice and rats), I.P./I.V., read-out: tolerated dosage according to the MTD results)?
Answer: The MTD was 24.7 to 93.8 mg/kg.

Question: What about the MTD ([1]; both sexes, BALB/c, iv, female and male mice, I.V., health conditions not significantly influenced, read-out: tolerated dosage (MTD study)) of the same compound?
Answer: The MTD was 24.7 mg/kg.

Question: What about the “volumes of distribution at a steady state” value (in vivo; male, BALB/c (mice), Sprague-Dawley (rats)) of the same compound?
Answer: Its value is over 9 L/kg.

Question: What about the “time of highest concentrations in plasma after I.P. injection” value (in vivo; male, BALB/c (mice), Sprague-Dawley (rats), ip, 5 mg/kg) of the same compound?
Answer: The value was 1 to 2 h.

Question: And the “time of highest concentrations in plasma after I.V. injection” value (in vivo; male, BALB/c (mice), Sprague-Dawley (rats), iv, 2.5 mg/kg)?
Answer: Its value is 5 min.

Question: And the “time point of peak plasma NSC23925b concentrations for both I.V. and I.P.” value (in vivo; male, BALB/c)?
Answer: Its value is 15 min.

Question: And the AUMC0-inf (in vivo; male, BALB/c, ip, 5 mg/kg)?
Answer: Its AUMC0-inf is 50744 ± 36083 h·h·ng·mL^−1.

Question: And the AUMC0-t (in vivo; male, BALB/c, ip, 5 mg/kg)?
Answer: The AUMC0-t was 25329 ± 4810 h·h·ng·mL^−1.

Question: What about the Cmax (in vivo; male, BALB/c, ip, 5 mg/kg) of the same compound?
Answer: Its Cmax is 298 ± 56.1 ng/mL.

Question: And the F (in vivo; male, BALB/c, ip, 5 mg/kg)?
Answer: The F was 117.1 ± 24.06%.

Question: And the AUC(0-inf) (in vivo; male, BALB/c, ip, 5 mg/kg)?
Answer: The AUC(0-inf) was 3980 ± 819 ng·h/mL.

Question: What about the AUC(0-t) (in vivo; male, BALB/c, ip, 5 mg/kg) of the same compound?
Answer: Its AUC(0-t) is 3360 ± 197 ng·h/mL.

Question: And the k el (in vivo; male, BALB/c, ip, 5 mg/kg)?
Answer: The k el was 2.56e-05 s⁻¹.

Question: And the half-life (in vivo; male, BALB/c, ip, 5 mg/kg)?
Answer: Its half-life is 8.69 ± 4.18 h.

Question: And the Tmax (in vivo; male, BALB/c, ip, 5 mg/kg, tmax)?
Answer: Its Tmax is about 1.5 h.

Question: What about the AUMC0-inf (in vivo; male, BALB/c, iv, 2.5 mg/kg) of the same compound?
Answer: Its AUMC0-inf is 11945 ± 2141 h·h·ng·mL^−1.

Question: What about the AUMC0-t (in vivo; male, BALB/c, iv, 2.5 mg/kg) of the same compound?
Answer: Its AUMC0-t is 9893 ± 1299 h·h·ng·mL^−1.

Question: What about the MRTIV (in vivo; male, BALB/c, iv, 2.5 mg/kg) of the same compound?
Answer: The MRTIV was 6.99 ± 0.836 h.

Question: And the AUC(0-inf) (in vivo; male, BALB/c, iv, 2.5 mg/kg)?
Answer: Its AUC(0-inf) is 1700 ± 130 ng·h/mL.

Question: What about the AUC(0-t) (in vivo; male, BALB/c, iv, 2.5 mg/kg) of the same compound?
Answer: Its AUC(0-t) is 1640 ± 114 ng·h/mL.

Question: What about the clearance (in vivo; male, BALB/c, iv, 2.5 mg/kg, CL) of the same compound?
Answer: The clearance was 24.6 ± 1.96 mL/min/kg.

Question: And the k el (in vivo; male, BALB/c, iv, 2.5 mg/kg)?
Answer: The k el was 3.89e-05 s⁻¹.

Question: What about the Vd (in vivo; male, BALB/c, iv, 2.5 mg/kg, VdSS) of the same compound?
Answer: The Vd was 10.3 ± 0.808 L/kg.

Question: What about the half-life (in vivo; male, BALB/c, iv, 2.5 mg/kg) of the same compound?
Answer: The half-life was 5.01 ± 0.661 h.

Question: And the “treatment-related clinical signs during the pharmacokinetic study” value (in vivo)?
Answer: Its value is “no treatment-related clinical signs were observed”.

Question: And the CYP inhibitor class (CYP1A2)?
Answer: Its CYP inhibitor class is “weak (IC50 values of >10 μM)”.

Question: What about the IC50 (CYP1A2; substrate phenacetin 30 μM, O-deethylation, read-out: Compound IC50) of the same compound?
Answer: The IC50 was over 10 µM.

Question: What about the CYP inhibitor class (CYP2B6; bupropion) of the same compound?
Answer: Its CYP inhibitor class is “moderate (1–10 μM)”.

Question: What about the IC50 (CYP2B6; substrate bupropion 70 μM, hydroxylation, read-out: Compound IC50) of the same compound?
Answer: The IC50 was 8.59 µM.
